# Laboratory results from PubChem BioAssay (NCI).
#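 The compound was tested at five concentrations on cells cultured in 96-well plates, with a 48-hour exposure period. TGI: total growth inhibition.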
# Test system: SK-OV-3 ovarian
# Experiment: NCI-60 cell line screen, 48 h
row,Structure (SMILES),TGI
1,CN(Nc1cc(=O)[nH]c(=O)[nH]1)c1ccccc1,> 100 µM
2,Cc1ccc(S(=O)(=O)C2=Cc3ccc(C(F)(F)F)cc3C2(O)c2cccc(C(F)(F)F)c2)cc1 (stereo unspecified),28.2 µM
3,CC(C)=CCS(=O)c1ccccc1NC1=CC(=O)CC(C)(C)C1 (stereo unspecified),> 100 µM
4,Cc1cn2c(=O)c3ccccc3nc2s1,> 100 µM
5,CN=NN(C)C(=O)NC,> 100 µM
6,N#CC(NNC(=O)Cc1ccccc1)c1ccccc1O (stereo unspecified),> 85.4 µM
7,COc1cccc(OC)c1/C=C1\OC(=O)c2cccc(OC)c21,> 100 µM

# Test system: T-47D breast
# Experiment: NCI-60 cell line screen, 48 h
row,Structure (SMILES),TGI
1,CN(Nc1cc(=O)[nH]c(=O)[nH]1)c1ccccc1,> 100 µM
2,Cc1ccc(S(=O)(=O)C2=Cc3ccc(C(F)(F)F)cc3C2(O)c2cccc(C(F)(F)F)c2)cc1 (stereo unspecified),11 µM
3,CC(C)=CCS(=O)c1ccccc1NC1=CC(=O)CC(C)(C)C1 (stereo unspecified),> 100 µM
4,N#CC(NNC(=O)Cc1ccccc1)c1ccccc1O (stereo unspecified),> 65.3 µM
5,COc1cccc(OC)c1/C=C1\OC(=O)c2cccc(OC)c21,> 100 µM

# Test system: SNB-19 CNS
# Experiment: NCI-60 cell line screen, 48 h
row,Structure (SMILES),TGI
1,CN(Nc1cc(=O)[nH]c(=O)[nH]1)c1ccccc1,> 100 µM
2,Cc1ccc(S(=O)(=O)C2=Cc3ccc(C(F)(F)F)cc3C2(O)c2cccc(C(F)(F)F)c2)cc1 (stereo unspecified),16.8 µM
3,CC(C)=CCS(=O)c1ccccc1NC1=CC(=O)CC(C)(C)C1 (stereo unspecified),> 100 µM
4,Cc1cn2c(=O)c3ccccc3nc2s1,> 100 µM
5,CN=NN(C)C(=O)NC,> 100 µM
6,N#CC(NNC(=O)Cc1ccccc1)c1ccccc1O (stereo unspecified),> 80.8 µM
7,COc1cccc(OC)c1/C=C1\OC(=O)c2cccc(OC)c21,> 100 µM

# Test system: M14 melanoma
# Experiment: NCI-60 cell line screen, 48 h
row,Structure (SMILES),TGI
1,CN(Nc1cc(=O)[nH]c(=O)[nH]1)c1ccccc1,> 100 µM
2,Cc1ccc(S(=O)(=O)C2=Cc3ccc(C(F)(F)F)cc3C2(O)c2cccc(C(F)(F)F)c2)cc1 (stereo unspecified),4.83 µM
3,CC(C)=CCS(=O)c1ccccc1NC1=CC(=O)CC(C)(C)C1 (stereo unspecified),> 100 µM
4,Cc1cn2c(=O)c3ccccc3nc2s1,> 100 µM
5,CN=NN(C)C(=O)NC,> 100 µM
6,N#CC(NNC(=O)Cc1ccccc1)c1ccccc1O (stereo unspecified),24.2 µM
7,COc1cccc(OC)c1/C=C1\OC(=O)c2cccc(OC)c21,> 58.9 µM

# Test system: U251 CNS
# Experiment: NCI-60 cell line screen, 48 h
row,Structure (SMILES),TGI
1,CN(Nc1cc(=O)[nH]c(=O)[nH]1)c1ccccc1,> 100 µM
2,Cc1ccc(S(=O)(=O)C2=Cc3ccc(C(F)(F)F)cc3C2(O)c2cccc(C(F)(F)F)c2)cc1 (stereo unspecified),3.6 µM
3,CC(C)=CCS(=O)c1ccccc1NC1=CC(=O)CC(C)(C)C1 (stereo unspecified),2.42 µM
4,Cc1cn2c(=O)c3ccccc3nc2s1,> 100 µM
5,CN=NN(C)C(=O)NC,> 100 µM
6,N#CC(NNC(=O)Cc1ccccc1)c1ccccc1O (stereo unspecified),> 92 µM
7,COc1cccc(OC)c1/C=C1\OC(=O)c2cccc(OC)c21,> 100 µM

# Test system: LOX IMVI melanoma
# Experiment: NCI-60 cell line screen, 48 h
row,Structure (SMILES),TGI
1,CN(Nc1cc(=O)[nH]c(=O)[nH]1)c1ccccc1,> 100 µM
2,Cc1ccc(S(=O)(=O)C2=Cc3ccc(C(F)(F)F)cc3C2(O)c2cccc(C(F)(F)F)c2)cc1 (stereo unspecified),3.52 µM
3,CC(C)=CCS(=O)c1ccccc1NC1=CC(=O)CC(C)(C)C1 (stereo unspecified),> 100 µM
4,Cc1cn2c(=O)c3ccccc3nc2s1,> 100 µM
5,CN=NN(C)C(=O)NC,> 100 µM
6,N#CC(NNC(=O)Cc1ccccc1)c1ccccc1O (stereo unspecified),31.5 µM
7,COc1cccc(OC)c1/C=C1\OC(=O)c2cccc(OC)c21,> 100 µM

# Test system: CAKI-1 renal
# Experiment: NCI-60 cell line screen, 48 h
row,Structure (SMILES),TGI
1,CN(Nc1cc(=O)[nH]c(=O)[nH]1)c1ccccc1,> 100 µM
2,Cc1ccc(S(=O)(=O)C2=Cc3ccc(C(F)(F)F)cc3C2(O)c2cccc(C(F)(F)F)c2)cc1 (stereo unspecified),14.6 µM
3,CC(C)=CCS(=O)c1ccccc1NC1=CC(=O)CC(C)(C)C1 (stereo unspecified),> 100 µM
4,Cc1cn2c(=O)c3ccccc3nc2s1,> 100 µM
5,CN=NN(C)C(=O)NC,> 100 µM
6,N#CC(NNC(=O)Cc1ccccc1)c1ccccc1O (stereo unspecified),> 89.9 µM
7,COc1cccc(OC)c1/C=C1\OC(=O)c2cccc(OC)c21,> 75.2 µM

# Test system: SW-620 colon
# Experiment: NCI-60 cell line screen, 48 h
row,Structure (SMILES),TGI
1,CN(Nc1cc(=O)[nH]c(=O)[nH]1)c1ccccc1,> 100 µM
2,Cc1ccc(S(=O)(=O)C2=Cc3ccc(C(F)(F)F)cc3C2(O)c2cccc(C(F)(F)F)c2)cc1 (stereo unspecified),3.85 µM
3,CC(C)=CCS(=O)c1ccccc1NC1=CC(=O)CC(C)(C)C1 (stereo unspecified),> 100 µM
4,Cc1cn2c(=O)c3ccccc3nc2s1,> 100 µM
